Columns and labels:
B. subtilis = experiment: Minimal Effective Concentration (MEC) assay; format: cell-based, Bacillus subtilis
Description: (§1) Three antimicrobial polypeptides, which are variants of SEQ ID NO: 1, were tested for antimicrobial activity. A Minimal Effective Concentration assay (MEC, expressed as micrograms/mL) against different microorganisms was performed using the three plectasin mutants, Y40YR, N17R and Y25R following the protocol described in the book of Methods in Molecular Biology, Vol. 78, Antibacterial peptide protocol William M. Shafer, Human Press.

M. luteus [1] = experiment: Minimal Effective Concentration (MEC) assay; format: cell-based, Micrococcus luteus
Description: as §1

S. epidermis = experiment: Minimal Effective Concentration (MEC) assay; format: cell-based, Staphylococcus epidermidis
Description: as §1

Staphylococcus carnosus = experiment: TAPS (Trans Acting Peptide System) assay, radial diffusion read-out; format: cell-based; set-up: key: classified as 4>3>2>1; whereas 4 is better than 1; classified as 4>3>2>1; classified as 4>3>2>1; wildtype activity corresponds to 1; details: peptide expressed in E. coli
Outline: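 Plectasin variants expressed in E. coli origami under 0.1% arabinose induction, released by hot acid hydrolysis (pH ~2.3, 80° C overnight). Hydrolysate tested by radial diffusion in agarose seeded with S. carnosus. Clearing-zone diameter scored 1–4, wildtype set at 1.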

M. luteus [2] = experiment: Minimal Inhibitory Concentration, NCCLS guidelines (Example 4); format: cell-based, Micrococcus luteus; details: purified peptide
Description: The Minimal Inhibitory Concentration (MIC, micrograms/mL) was determined to test for their antimicrobial activity following the NCCLS guidelines (Clinical and Laboratory Standards Institute; formerly known as National Committee for Clinical and Laboratory Standards).

[3] = test system: panel of 6 different strains of Staphylococcus aureus; experiment: Average MIC, NCCLS/CLSI guidelines using caMHB (Example 6); format: cell-based; details: average over 6 S. aureus strains, duplicate; MIC above 32 counted as 64; read after 18-24 hours at 37° C.
Outline: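 MICs were determined by broth dilution per NCCLS/CLSI in caMHB against six S. aureus strains (four MSSA, two MRSA), with peptides at 0.03–32 microgram/mL, read after 18-24 h at 37° C. Each was tested in duplicate and the two results averaged; MICs above 32 micrograms/mL were counted as 64.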

Sequence: GFGCNGPWDEDDMQCHNHCKSIKGYKGGYCAKGGFVCKCY (listed as Pseudoplectania nigrella) [wildtype, wildtype plectasin, parent antimicrobial polypeptide, reference compound]
- MEC against B. subtilis (B. subtilis): 0.09 micrograms/mL
- MEC against M. luteus (M. luteus [1]): 1.89 micrograms/mL
- MEC against S. epidermis (S. epidermis): 0.98 micrograms/mL
- Activity (antimicrobial activity, clearing zone size) (Staphylococcus carnosus): 1
- MIC against M. luteus (M. luteus [2]): 32 micrograms/mL
- Average MIC [3]: 14 micrograms/mL

Source: patent US20100120690A1, “Polypeptides Having Antimicrobial Activity and Polynucleotides Encoding Same” (Novozymes Adenium Biotech A/S, priority 2005, published 2010)
